ChEMBL document CHEMBL1136244, “Synthesis and structure-activity relationships of 1-arylmethyl-3-(2-aminopropyl)-5-aryl-6-methyluracils as potent GnRH receptor antagonists” (Bioorg Med Chem Lett, 2003)

Biological target: T1, Gonadotropin-releasing hormone receptor (Homo sapiens, UniProt P30968)
T1 sequence (P30968 whole entry): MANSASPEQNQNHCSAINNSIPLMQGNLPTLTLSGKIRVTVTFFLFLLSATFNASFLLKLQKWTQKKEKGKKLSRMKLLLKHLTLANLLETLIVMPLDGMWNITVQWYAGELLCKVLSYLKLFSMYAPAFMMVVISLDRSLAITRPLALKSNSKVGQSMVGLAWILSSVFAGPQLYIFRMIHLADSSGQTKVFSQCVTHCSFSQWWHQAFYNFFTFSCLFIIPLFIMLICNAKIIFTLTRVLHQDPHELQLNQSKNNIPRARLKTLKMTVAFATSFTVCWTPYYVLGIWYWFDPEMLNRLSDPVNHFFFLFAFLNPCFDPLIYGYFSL
Assay: Ability to inhibit des-Gly10[125I]Tyr5,DLeu6,NMeLeu7, Pro9-NEt]-GnRH radioligand binding to the cloned human gonadotropin-releasing hormone receptor stably expressed in HEK293 cells
Format: cell-based

Point of comparison: COc1cccc(-c2c(C)n(Cc3c(F)cccc3F)c(=O)n(C[C@@H](C)NCc3ccccc3)c2=O)c1, Ki 130 nM. Against it:
- COc1cccc(-c2c(C)n(Cc3c(F)cccc3F)c(=O)n(C[C@H](C)NCc3ccccc3)c2=O)c1 — within 1.5-fold, 140 nM
- COc1cccc(-c2c(C)n(Cc3c(F)cccc3F)c(=O)n(CC(C)N(C)CCc3ccccn3)c2=O)c1 (centres undefined) — 11-fold lower, 12 nM
- COc1cccc(-c2c(C)n(Cc3c(F)cccc3F)c(=O)n(C[C@@H](C)N(C)Cc3ccccc3)c2=O)c1 — 2.5-fold higher, 330 nM
- COc1cccc(-c2c(C)n(Cc3c(F)cccc3F)c(=O)n(C[C@H](C)N)c2=O)c1 — 140-fold higher, 18000 nM
- COc1cccc(-c2c(C)n(Cc3c(F)cccc3F)c(=O)n(C[C@@H](C)NCCc3ccccn3)c2=O)c1 — 1.6-fold lower, 79 nM
- COc1cccc(-c2c(C)n(Cc3c(F)cccc3F)c(=O)n(CCNCc3ccccn3)c2=O)c1 — 4.2-fold higher, 550 nM
- COc1cccc(-c2c(C)n(Cc3c(F)cccc3F)c(=O)n(C[C@H](C)NCCc3ccccn3)c2=O)c1 — 6-fold higher, 780 nM
- COc1cccc(-c2c(C)n(Cc3c(F)cccc3F)c(=O)n(C[C@@H]3CCCN3Cc3ccccn3)c2=O)c1 — 1.6-fold higher, 210 nM
- COc1cccc(-c2c(C)n(Cc3c(F)cccc3F)c(=O)n(C[C@@H](C)N)c2=O)c1 — 19-fold higher, 2500 nM
- COc1cccc(-c2c(C)n(Cc3c(F)cccc3F)c(=O)n(CC(C)NCc3ccccn3)c2=O)c1 (centres undefined) — 2.5-fold lower, 53 nM
- COc1cccc(-c2c(C)n(Cc3c(F)cccc3F)c(=O)n(CC(C)NCCCOCC(C)C)c2=O)c1 (centres undefined) — 1.6-fold lower, 81 nM
- COc1cccc(-c2c(C)n(Cc3c(F)cccc3F)c(=O)n(CC(C)N(C)CCCOCC(C)C)c2=O)c1 (centres undefined) — 1.8-fold higher, 240 nM
- COc1cccc(-c2c(C)n(Cc3c(F)cccc3F)c(=O)n(C[C@H](C)N(C)CCc3ccccn3)c2=O)c1 — 6.8-fold higher, 890 nM
- COc1cccc(-c2c(C)n(Cc3c(F)cccc3F)c(=O)n(CCN(C)Cc3ccccn3)c2=O)c1 — within 1.5-fold, 96 nM
- COc1cccc(-c2c(C)n(Cc3c(F)cccc3F)c(=O)n(C[C@@H](C)NCc3ccccn3)c2=O)c1 — 8.7-fold lower, 15 nM
- COc1cccc(-c2c(C)n(Cc3c(F)cccc3F)c(=O)n(C[C@H](C)N(C)Cc3ccccc3)c2=O)c1 — 1.9-fold higher, 250 nM
- COc1cccc(-c2c(C)n(Cc3c(F)cccc3F)c(=O)n(CC(C)N(C)Cc3ccccc3)c2=O)c1 (centres undefined) — 2.4-fold higher, 310 nM
- COc1cccc(-c2c(C)n(Cc3c(F)cccc3F)c(=O)n(CC(C)NCCc3ccccn3)c2=O)c1 (centres undefined) — within 1.5-fold, 170 nM
- COc1cccc(-c2c(C)n(Cc3c(F)cccc3F)c(=O)n(CC(C)NCc3ccccc3)c2=O)c1 (centres undefined) — 2.2-fold higher, 280 nM
- COc1cccc(-c2c(C)n(Cc3c(F)cccc3F)c(=O)n(C[C@H](C)NCc3ccccn3)c2=O)c1 — 3.5-fold higher, 460 nM
- COc1cccc(-c2c(C)n(Cc3c(F)cccc3F)c(=O)n(C[C@H]3CCCN3Cc3ccccn3)c2=O)c1 — 4.1-fold lower, 32 nM
- COc1cccc(-c2c(C)n(Cc3c(F)cccc3F)c(=O)n(C[C@@H](C)N(C)CCc3ccccn3)c2=O)c1 — 25-fold lower, 5.2 nM

System: not listed separately
Assay: Inhibition of GnRH-stimulated [Ca2+] influx
Format: functional

COc1cccc(-c2c(C)n(Cc3c(F)cccc3F)c(=O)n(C[C@@H](C)N(C)Cc3ccccn3)c2=O)c1 showed an IC50 of 2.5 nM.
